Patent US10882833B2, “Phenylate derivative, preparation method therefor, and pharmaceutical composition and uses thereof” (Institute of Materia Medica, Chinese Academy of Medical …, priority 2016, dated 2021)
Counter-ions that a name gives are not always drawn.

Molecular target: interaction between PD-1 and PD-L1 (Homo sapiens (Human), UniProt Q9NZQ7)
Sequence (Q9NZQ7 19-238): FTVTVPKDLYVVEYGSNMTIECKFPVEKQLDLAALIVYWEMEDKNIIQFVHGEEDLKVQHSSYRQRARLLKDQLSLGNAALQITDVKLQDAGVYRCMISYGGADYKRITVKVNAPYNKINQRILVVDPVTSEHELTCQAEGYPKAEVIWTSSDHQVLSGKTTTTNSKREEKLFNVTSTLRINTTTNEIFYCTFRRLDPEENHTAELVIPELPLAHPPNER
Experiment: Cisbio PD-1/PD-L1 binding assay kit (HTRF)
Details: 8-10 concentrations, read-out: IC50, inhibitory activity at molecular level on the interaction between PD-1 and PD-L1
Description: • 1. In vitro activity evaluation: Cisbio PD-1/PD-L1 binding assay kit was applied for the detection method of in vitro enzymology level. Screening Principles and Methods of PD-1/PD-L1 Small Molecule Inhibitors • 1) Principle: PD-1 protein is with HIS tag, and PD-1 ligand PD-L1 is with hFc tag. Eu labeled anti-hFc antibody and XL665 labeled anti-HIS antibody are combined with the above two label proteins respectively. After laser excitation, energy can be transferred from donor Eu to receptor XL665, allowing XL665 to glow. […] Reagents should be dispensed in the following order. For 384-well white ELISA plate, 2 μl of diluent or target compound diluted with diluent was added to each well, and then 4 μl of PD-1 protein and 4 μl of PD-L1 protein were added per well, incubated for 15 min at room temperature; and 10 μl of a mixture of anti-Tag1-Eu3+ and anti-Tag2-XL665 was added per well and incubated for 1 h to 4 h at room temperature and the fluorescence signals at 665 nm and 620 nm were measured with an Envison instrument. HTRF rate=(665 nm/620 nm)*10^4. 8-10 concentrations were detected for each compound and IC50 was calculated by Graphpad software. • 3) The results of the screening were shown in Table 1.
In the case of `C=CCOc1cc(OCc2cccc(-c3ccccc3)c2Br)c(Cl)cc1CNCCNC(C)=O` [Example 3, N-acetylaminoethyl-4-(2-bromo-3-phenylbenzyloxy)-5-chloro-2-allyloxy benzylamine], the IC50 is reported as 126 nM.
`CC(=O)NCCNCc1cc(Cl)c(OCc2cccc(-c3ccccc3)c2Br)cc1OCC1CC1` [Example 5, N-acetylaminoethyl-4-(2-bromo-3-phenylbenzyloxy)-5-chloro-2-(cyclopropylmethoxy)benzylamine] showed an IC50 of 1150 nM.
In the case of `O=C(COc1cc(OCc2cccc(-c3ccccc3)c2Br)c(Cl)cc1CN1CCCC[C@H]1C(=O)O)NO` [Example 15, (S)—N-(4-(2-bromo-3-phenylbenzyloxy)-5-chloro-2-(N-hydroxycarbamoylmethoxy)benzyl)Pipecolinic Acid], the IC50 is reported as 183 nM.
In the case of `CC(=O)NCCNCc1cc(Cl)c(OCc2cccc(-c3ccccc3)c2Br)cc1OCC1CC1` [Example 10, N-acetylaminoethyl-4-(2-bromo-3-phenylbenzyloxy)-5-chloro-2-(cyclopropylmethoxy)benzylamine], the IC50 is reported as 1000 nM.
`C#CCOc1cc(OCc2cccc(-c3ccccc3)c2Br)c(Cl)cc1CNCCNC(C)=O` [Example 4, N-acetylaminoethyl-4-(2-bromo-3-phenylbenzyloxy)-5-chloro-2-(prop-2-ynyloxy)benzylamine] gave an IC50 of 1800 nM.
In the case of `O=C(O)[C@@H]1C[C@H](O)CN1Cc1cc(Cl)c(OCc2cccc(-c3ccc4c(c3)OCCO4)c2Br)cc1OCC1CC1` [Example 17, (S,S)—N-(4-(2-bromo-3-(2,3-dihydrobenzo[b][1,4]dioxin-6-yl)benzyloxy)-5-chloro-2-(cyclopropylmethoxy)benzyl)-4-hydroxyproline], the IC50 is reported as 40.5 nM.
`CN(C)C(=O)COc1cc(OCc2cccc(-c3ccccc3)c2Br)c(Cl)cc1CNC(CO)C(=O)O` (stereo not shown) [Example 6] showed an IC50 of 42.5 nM.
`NC(=O)[C@H](CO)NCc1cc(Cl)c(OCc2cccc(-c3ccccc3)c2Br)cc1OCC1CC1` (stereo in doubt) [Example 9, 2-(4-(2-bromo-3-phenylbenzyloxy)-5-chloro-2-(cyclopropylmethoxy)benzylamino)-3-hydroxypropanamide] showed an IC50 of 81.6 nM.
`COc1cc(OCc2cccc(-c3ccccc3)c2Br)c(Cl)cc1CNCCNC(C)=O` [Example 2, N-acetylaminoethyl-4-(2-bromo-3-phenylbenzyloxy)-5-chloro-2-methoxy benzylamine hydrochloride] gave an IC50 of 732 nM.
`CON(C)C(=O)COc1cc(OCc2cccc(-c3ccccc3)c2Br)c(Cl)cc1CN[C@@H](CO)C(=O)O` [Example 12, N-(4-(2-bromo-3-phenylbenzyloxy)-5-chloro-2-(N-methoxy-N-methylcarbamoylmethoxy)benzyl)serine] gave an IC50 of 191 nM.
With `NC(=O)NCCC[C@H](NCc1cc(Cl)c(OCc2cccc(-c3ccccc3)c2Br)cc1OCC1CC1)C(=O)O` [Example 11, N-(4-(2-bromo-3-phenylbenzyloxy)-5-chloro-2-(cyclopropylmethoxy)benzyl)Citrulline] the IC50 was 1410 nM.
`NC(=O)COc1cc(OCc2cccc(-c3ccccc3)c2Br)c(Cl)cc1CN[C@@H](CO)C(=O)O` [Example 1, (S)—N-(4-(2-bromo-3-phenylbenzyloxy)-5-chloro-2-(carbamoylmethoxy)benzyl)serine] showed an IC50 of 312 nM.
In the case of `C[C@@H](O)[C@H](NCc1cc(Cl)c(OCc2cccc(-c3ccccc3)c2Br)cc1OCC1CC1)C(=O)O` [Example 8, N-(4-(2-bromo-3-phenylbenzyloxy)-5-chloro-2-(cyclopropylmethoxy)benzyl)threonine], the IC50 is reported as 10.2 nM.
Work on `O=C(O)[C@H](CO)NCc1cc(Cl)c(OCc2cccc(-c3ccccc3)c2Br)cc1OCC(=O)N1CCOCC1` [Example 13, N-(4-(2-bromo-3-phenylbenzyloxy)-5-chloro-2-(2-morpholino-2-oxoethoxy)benzyl)serine] yielded an IC50 of 41.3 nM.
In the case of `O=C(O)[C@H](CO)NCc1cc(Cl)c(OCc2cccc(-c3ccccc3)c2Br)cc1OCC1CC1` [Example 14, (S)—N-(4-(2-bromo-3-phenylbenzyloxy)-5-chloro-2-(cyclopropylmethoxy)benzyl)serine], the IC50 is reported as 41.7 nM.

Tested on: pleural mesothelioma (PM)
Experiment: not given
Details: 25 patients with pleural mesothelioma; cited from earlier work
For pembrolizumab [Keytruda], the disease control rate is given as 76% and the “overall response rate (ORR)” value is given as 28%.

Tested on: advanced Hodgkin's lymphoma (HL)
Experiment: not given
Details: patients with no treatment response to any approved drug; cited from earlier work
In the case of pembrolizumab [Keytruda], the “treatment outcome in advanced Hodgkin's lymphoma” value is given as “complete remission”.
For nivolumab [Opdvio], the “treatment outcome in advanced Hodgkin's lymphoma” value is listed as “complete remission”.
